Where a SMILES comes first, the peptide text is derived from it. Bridges are numbered along the chain shown (N, C = ends). [ ]: non-standard residue; d: D form. ξ: configuration not given here. Trp(1-CH2COOH) = N[C@@H](Cc1cn(CC(=O)O)c2ccccc12)C(=O)O; Hyp = O=C(O)[C@@H]1C[C@@H](O)CN1; NMeNle = CCCC[C@H](NC)C(=O)O; hSer = N[C@@H](CCO)C(=O)O; NMeA = CN[C@@H](C)C(=O)O; Orn = NCCC[C@H](N)C(=O)O; Dab = NCC[C@H](N)C(=O)O; Dap = NC[C@H](N)C(=O)O; ξP = O=C(O)C1CCCN1

This assay has as its target T1, Human PD-L1/PD-1 (Homo sapiens, UniProt Q9NZQ7).
T1 construct: TVMV protease cleavage site (C); made in house; host or cells: HEK293T cells
Nature of the assay: HTRF Human PD-L1/PD-1 binding assay (PD-1-Ig/PD-L1-His). As to conditions: PD-L1-His 10 nM, PD-1-Ig 20 nM; class symbol; read-out: HTRF Human PD-L1/PD-1 Binding Assay IC50 Range. In outline: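 Truncated Fc-fused human PD-1 (aa 25-167) at 20 nM and His-tagged PD-L1 (aa 18-239) at 10 nM final are used, with peptides preincubated 15 min with PD-L1. Detection uses europium-cryptate anti-Ig and APC anti-His antibodies; 665/620 nm ratio.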
A general note: Time-resolved FRET reads energy transfer from a long-lived donor to a nearby acceptor.

T1 sequence (Q9NZQ7 with tags, fused parts or gaps): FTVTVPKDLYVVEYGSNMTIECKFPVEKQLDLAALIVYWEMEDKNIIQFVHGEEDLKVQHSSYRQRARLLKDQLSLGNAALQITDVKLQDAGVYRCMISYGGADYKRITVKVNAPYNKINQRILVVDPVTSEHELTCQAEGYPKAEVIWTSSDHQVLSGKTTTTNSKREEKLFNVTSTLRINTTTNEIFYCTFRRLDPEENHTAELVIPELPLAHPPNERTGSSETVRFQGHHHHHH

Consider `CCCC[C@H]1C(=O)N(C)[C@@H](CCCC)C(=O)N[C@@H](CC(=O)O)C(=O)N[C@H](C(=O)NCC(N)=O)CSCC(=O)N[C@@H](Cc2ccc(O)cc2)C(=O)N(C)[C@@H](C)C(=O)N[C@@H](CC(=O)O)C(=O)N2CCC[C@H]2C(=O)N[C@@H](Cc2cnc[nH]2)C(=O)N[C@@H](CCCCN)C(=O)N2C[C@H](O)C[C@H]2C(=O)N[C@@H](Cc2c[nH]c3ccccc23)C(=O)N[C@@H](CCCCN)C(=O)N[C@@H](Cc2cn(CC(=O)O)c3ccccc23)C(=O)N1C` [Example 6209] ({CH2CO}-Y[NMeA]DPHK[Hyp]WK[Trp(1-CH2COOH)][NMeNle][NMeNle]DCG-NH2; thioether N-14), for which the IC50 lay in the range of 1 to 9.9 nM.

Consider `CCCC[C@H]1C(=O)N(C)[C@@H](CCCC)C(=O)N[C@@H](CCCNC(=N)N)C(=O)N[C@H](C(=O)NCC(N)=O)CSCC(=O)N[C@@H](Cc2ccc(O)cc2)C(=O)N(C)[C@@H](C)C(=O)N[C@@H](CC(N)=O)C(=O)N2CCC[C@H]2C(=O)N[C@@H](CO)C(=O)N[C@@H](CCO)C(=O)N2C[C@H](O)C[C@H]2C(=O)N[C@@H](Cc2c[nH]c3ccccc23)C(=O)N[C@@H](CCO)C(=O)N[C@@H](Cc2cn(CC(=O)O)c3ccccc23)C(=O)N1C` [Example 6213] ({CH2CO}-Y[NMeA]NPS[hSer][Hyp]W[hSer][Trp(1-CH2COOH)][NMeNle][NMeNle]RCG-NH2; thioether N-14), for which the IC50 is 1 to 9.9 nM.

Consider `CCCC[C@H]1C(=O)N(C)[C@@H](CCCC)C(=O)N[C@@H](CC(C)C)C(=O)N[C@H](C(=O)NCC(N)=O)CSCC(=O)N[C@@H](Cc2ccc(O)cc2)C(=O)N(C)[C@@H](C)C(=O)N[C@@H](CC(N)=O)C(=O)N2CCC[C@H]2C(=O)N[C@@H](CO)C(=O)N[C@@H](CCC(N)=O)C(=O)N2C[C@H](O)C[C@H]2C(=O)N[C@@H](Cc2c[nH]c3ccccc23)C(=O)N[C@@H](CO)C(=O)N[C@@H](Cc2cn(CC(=O)O)c3ccccc23)C(=O)N1C` [Example 6216] ({CH2CO}-Y[NMeA]NPSQ[Hyp]WS[Trp(1-CH2COOH)][NMeNle][NMeNle]LCG-NH2; thioether N-14), for which the IC50 lay in the range of 1 to 9.9 nM.

Consider `CCCC[C@H]1C(=O)N(C)[C@@H](CCCC)C(=O)N[C@@H](CCCNC(=N)N)C(=O)N[C@H](C(=O)NCC(N)=O)CSCC(=O)N[C@@H](Cc2ccc(O)cc2)C(=O)N(C)[C@@H](C)C(=O)N[C@@H](CC(=O)O)C(=O)N2CCC[C@H]2C(=O)N[C@@H](Cc2cnc[nH]2)C(=O)N[C@@H](CCCCN)C(=O)N2C[C@H](O)C[C@H]2C(=O)N[C@@H](Cc2c[nH]c3ccccc23)C(=O)N[C@@H](CCCCN)C(=O)N[C@@H](Cc2cn(CC(=O)O)c3ccccc23)C(=O)N1C` [Example 6224] ({CH2CO}-Y[NMeA]DPHK[Hyp]WK[Trp(1-CH2COOH)][NMeNle][NMeNle]RCG-NH2; thioether N-14), for which the IC50 fell in the range of 10 to 99.9 nM.

Turning to `CCCC[C@H]1C(=O)N(C)[C@@H](CCCC)C(=O)N[C@@H](CCCNC(=N)N)C(=O)N[C@H](C(=O)NCC(N)=O)CSCC(=O)N[C@@H](Cc2ccc(O)cc2)C(=O)N(C)[C@@H](C)C(=O)N[C@@H](CC(N)=O)C(=O)N2CCC[C@H]2C(=O)N[C@@H](Cc2cnc[nH]2)C(=O)N[C@@H](CCC(=O)O)C(=O)N2C[C@H](O)C[C@H]2C(=O)N[C@@H](Cc2c[nH]c3ccccc23)C(=O)N[C@@H](CO)C(=O)N[C@@H](Cc2cn(CC(=O)O)c3ccccc23)C(=O)N1C` [Example 6228] ({CH2CO}-Y[NMeA]NPHE[Hyp]WS[Trp(1-CH2COOH)][NMeNle][NMeNle]RCG-NH2; thioether N-14), the IC50 lay within 1 to 9.9 nM.

For `CCCC[C@H]1C(=O)N(C)[C@@H](CCCC)C(=O)N[C@@H](CC(C)C)C(=O)N[C@H](C(=O)NCC(N)=O)CSCC(=O)N[C@@H](Cc2ccc(O)cc2)C(=O)N(C)[C@@H](C)C(=O)N[C@@H](CCN)C(=O)N2CCC[C@H]2C(=O)N[C@@H](Cc2cnc[nH]2)C(=O)N[C@@H](CCC(=O)O)C(=O)N2C[C@H](O)C[C@H]2C(=O)N[C@@H](Cc2c[nH]c3ccccc23)C(=O)N[C@@H](CO)C(=O)N[C@@H](Cc2cn(CC(=O)O)c3ccccc23)C(=O)N1C` [Example 6236] ({CH2CO}-Y[NMeA][Dab]PHE[Hyp]WS[Trp(1-CH2COOH)][NMeNle][NMeNle]LCG-NH2; thioether N-14), the IC50 lay in the range of 1 to 9.9 nM.

As for `CCCC[C@H]1C(=O)N(C)[C@@H](CCCC)C(=O)N[C@@H](CN)C(=O)N[C@H](C(=O)NCC(N)=O)CSCC(=O)N[C@@H](Cc2ccc(O)cc2)C(=O)N(C)[C@@H](C)C(=O)N[C@@H](CC(N)=O)C(=O)N2CCC[C@H]2C(=O)N[C@@H](Cc2cnc[nH]2)C(=O)N[C@@H](CCC(=O)O)C(=O)N2C[C@H](O)C[C@H]2C(=O)N[C@@H](Cc2c[nH]c3ccccc23)C(=O)N[C@@H](CO)C(=O)N[C@@H](Cc2cn(CC(=O)O)c3ccccc23)C(=O)N1C` [Example 6244] ({CH2CO}-Y[NMeA]NPHE[Hyp]WS[Trp(1-CH2COOH)][NMeNle][NMeNle][Dap]CG-NH2; thioether N-14), the IC50 is 1 to 9.9 nM.

Consider `CCCC[C@H]1C(=O)N(C)[C@@H](CCCC)C(=O)N[C@@H](CN)C(=O)N[C@H](C(=O)NCC(N)=O)CSCC(=O)N[C@@H](Cc2ccc(O)cc2)C(=O)N(C)[C@@H](C)C(=O)N[C@@H](CC(N)=O)C(=O)N2CCC[C@H]2C(=O)N[C@@H](CO)C(=O)N[C@@H](Cc2cnc[nH]2)C(=O)N2C[C@H](O)C[C@H]2C(=O)N[C@@H](Cc2c[nH]c3ccccc23)C(=O)N[C@@H](CCN)C(=O)N[C@@H](Cc2cn(CC(=O)O)c3ccccc23)C(=O)N1C` [Example 6247] ({CH2CO}-Y[NMeA]NPSH[Hyp]W[Dab][Trp(1-CH2COOH)][NMeNle][NMeNle][Dap]CG-NH2; thioether N-14), for which the IC50 lay within 1 to 9.9 nM.

For `CCCC[C@H]1C(=O)N(C)[C@@H](CCCC)C(=O)N[C@@H](C)C(=O)N[C@H](C(=O)NCC(N)=O)CSCC(=O)N[C@@H](Cc2ccc(O)cc2)C(=O)N(C)[C@@H](C)C(=O)N[C@@H](CC(=O)O)C(=O)N2CCC[C@H]2C(=O)N[C@@H](Cc2cnc[nH]2)C(=O)N[C@@H](CCCN)C(=O)N2C[C@H](O)C[C@H]2C(=O)N[C@@H](Cc2c[nH]c3ccccc23)C(=O)N[C@@H](CO)C(=O)N[C@@H](Cc2cn(CC(=O)O)c3ccccc23)C(=O)N1C` [Example 6249] ({CH2CO}-Y[NMeA]DPH[Orn][Hyp]WS[Trp(1-CH2COOH)][NMeNle][NMeNle]ACG-NH2; thioether N-14), the IC50 lay within 1 to 9.9 nM.

Regarding `CCCC[C@H]1C(=O)N(C)[C@@H](CCCC)C(=O)N[C@@H](CCC(=O)O)C(=O)N[C@H](C(=O)NCC(N)=O)CSCC(=O)N[C@@H](Cc2ccc(O)cc2)C(=O)N(C)[C@@H](C)C(=O)N[C@@H](CC(N)=O)C(=O)N2CCCC2C(=O)N[C@@H](CO)C(=O)N[C@@H](CC(C)C)C(=O)N2C[C@H](O)C[C@H]2C(=O)N[C@@H](Cc2c[nH]c3ccccc23)C(=O)N[C@@H](CO)C(=O)N[C@@H](Cc2cn(CC(=O)O)c3ccccc23)C(=O)N1C` (some centres unmarked) [Example 6250] ({CH2CO}-Y[NMeA]N[ξP]SL[Hyp]WS[Trp(1-CH2COOH)][NMeNle][NMeNle]ECG-NH2; thioether N-14), the IC50 is 1 to 9.9 nM.

Turning to `CCCC[C@H]1C(=O)N(C)[C@@H](CCCC)C(=O)N[C@@H](CC(C)C)C(=O)N[C@H](C(N)=O)CSCC(=O)N[C@@H](Cc2ccc(O)cc2)C(=O)N(C)[C@@H](C)C(=O)N[C@@H](CC(N)=O)C(=O)N2CCC[C@H]2C(=O)N[C@@H](CN)C(=O)N[C@@H](CC(C)C)C(=O)N2C[C@H](O)C[C@H]2C(=O)N[C@@H](Cc2c[nH]c3ccccc23)C(=O)N[C@@H](CC(=O)O)C(=O)N[C@@H](Cc2cn(CC(=O)O)c3ccccc23)C(=O)N1C` [Example 6258] ({CH2CO}-Y[NMeA]NP[Dap]L[Hyp]WD[Trp(1-CH2COOH)][NMeNle][NMeNle]LC-NH2; thioether N-14), the IC50 lay in the range of 10 to 99.9 nM.

Regarding `CCCC[C@H]1C(=O)N(C)[C@@H](CCCC)C(=O)N[C@@H](CC(C)C)C(=O)N[C@H](C(=O)NCC(N)=O)CSCC(=O)N[C@@H](Cc2ccc(O)cc2)C(=O)N(C)[C@@H](C)C(=O)N[C@@H](CC(N)=O)C(=O)N[C@H](C)C(=O)N[C@@H](Cc2cnc[nH]2)C(=O)N[C@@H](CCC(N)=O)C(=O)N2C[C@H](O)C[C@H]2C(=O)N[C@@H](Cc2c[nH]c3ccccc23)C(=O)N[C@@H](CO)C(=O)N[C@@H](Cc2c[nH]c3ccccc23)C(=O)N1C` [Example 6262] ({CH2CO}-Y[NMeA]N[dA]HQ[Hyp]WSW[NMeNle][NMeNle]LCG-NH2; thioether N-14), the IC50 was 1 to 9.9 nM.

Turning to `CCCC[C@H]1C(=O)N(C)[C@@H](CCCC)C(=O)N[C@@H](CC(C)C)C(=O)N[C@H](C(=O)NCC(N)=O)CSCC(=O)N[C@@H](Cc2ccc(O)cc2)C(=O)N(C)[C@@H](C)C(=O)N[C@@H](CC(N)=O)C(=O)N2CCC[C@H]2C(=O)N[C@@H](CO)C(=O)N[C@@H](CCC(=O)O)C(=O)N2C[C@H](O)C[C@H]2C(=O)N[C@@H](Cc2c[nH]c3ccccc23)C(=O)N[C@@H](CCN)C(=O)N[C@@H](Cc2cn(CC(=O)O)c3ccccc23)C(=O)N1C` [Example 6266] ({CH2CO}-Y[NMeA]NPSE[Hyp]W[Dab][Trp(1-CH2COOH)][NMeNle][NMeNle]LCG-NH2; thioether N-14), the IC50 was in the range of 10 to 99.9 nM.

`CCCC[C@H]1C(=O)N(C)[C@@H](CCCC)C(=O)N[C@@H](CCC(=O)O)C(=O)N[C@H](C(=O)NCC(N)=O)CSCC(=O)N[C@@H](Cc2ccc(O)cc2)C(=O)N(C)[C@@H](C)C(=O)N[C@@H](CC(N)=O)C(=O)N2CCC[C@H]2C(=O)N[C@@H](Cc2cnc[nH]2)C(=O)N[C@@H](CCCN)C(=O)N2C[C@H](O)C[C@H]2C(=O)N[C@@H](Cc2c[nH]c3ccccc23)C(=O)N[C@@H](CCCCN)C(=O)N[C@@H](Cc2cn(CC(=O)O)c3ccccc23)C(=O)N1C` [Example 6267] ({CH2CO}-Y[NMeA]NPH[Orn][Hyp]WK[Trp(1-CH2COOH)][NMeNle][NMeNle]ECG-NH2; thioether N-14): the IC50 fell in the range of 1 to 9.9 nM.

Source of the values: US10538555B2, “Macrocyclic inhibitors of the PD-1/PD-L1 and CD80(B7-1)/PD-L1 protein/protein interactions” (BRISTOL-MYERS SQUIBB COMPANY, priority 2014, dated 2020).
